Holding throughout (assay type): physicochemical
The nature of series [1]: Differential Scanning Calorimetry (DSC). The settings on record: for Melting point (onset): * = multiple thermal events; for DSC Endotherm, enthalpy / DSC Endotherm, onset temp: single endotherm; for DSC Endotherm, onset temp: followed by exothermic event. The procedure:
TA Instruments Q2000: DSC data were collected on a TA Instruments Q2000 equipped with a 50 position auto sampler. Typically, 0.5 3 mg of each sample, in a pin-holed aluminium pan, was heated at 10° C./min from 25° C. to 235° C. A purge of dry nitrogen at 50 mlmL/min was maintained over the sample. The instrument control software was Advantage for Q Series and Thermal Advantage and the data were analysed using Universal Analysis or TRIOS.
TA Instruments Discovery DSC: DSC data were also collected on a TA Instruments Discovery DSC equipped with a 50 position auto-sampler. Typically, 0.5 3 mg of each sample, in a pin-holed aluminium pan, was heated at 10° C./min from 25° C. to 235° C. A purge of dry nitrogen at 50 mlmL/min was maintained over the sample. The instrument control software was TRIOS and the data were analysed using TRIOS or Universal Analysis.
For orientation: DSC measures the heat that a sample takes up or gives off during a temperature scan.

Series [2] is described as follows: Storage stability at elevated temperature and humidity (XRPD and HPLC purity after storage). The settings on record: for Stability at 25° C./97% RH and 40° C./75% RH: XRPD after storage; for Storage: XRPD pattern: 40° C./75% RH, after 7 days; for Stability to increased temperature and humidity: in words, increased temperature (40° C.) and high humidity; for XRPD after storage at 40° C./75% RH: 7 days. The procedure: Bruker AXS D8 Advance: XRPD diffractograms were collected on a Bruker D8 diffractometer using Cu Kα radiation (40 kV, 40 mA) and a θ-2θ goniometer fitted with a Ge monochromator. The incident beam passes through a 2.0 mm divergence slit followed by a 0.2 mm anti-scatter slit and knife edge. The diffracted beam passes through an 8.0 mm receiving slit with 2.5° Soller slits followed by the Lynxeye Detector. The software used for data collection and analysis was Diffrac Plus XRD Commander and Diffrac Plus EVA respectively. Samples were run under ambient conditions as flat plate specimens using powder as received. The sample was prepared on a polished, zero-background (510) silicon wafer by gently pressing onto the flat surface or packed into a cut cavity. The sample was rotated in its own plane. The details of the data collection method are: • Angular range: 2 to 42° 2θ • Step size: 0.05° 2θ • Collection time: 0.5 s/step (total collection time: 6.40 min)
Purity analysis was performed on an Agilent Ip 100/Infinity 111260 series system equipped with a diode array detector and using OpenLAB software. The full method details are provided below:
The three potential cocrystals were characterised using DSC, 1H NMR, TGA and by evaluating their stability with XRPD after 7 or 8 days of being stored at 40° C./75% RH. All three cocrystals were unchanged by XRPD after storage at 40° C./75% RH and none had significant amounts of solvent present (Table 28). The 4 HBA cocrystal appeared to have a similar melt to the starting material (ca. 85° C.). […] All initially appeared to have a 1:1 stoichiometry. […]

Series [3] in a line: Gravimetric Vapour Sorption (GVS) moisture sorption isotherm. The settings on record: for GVS reversible water uptake: between 0-90% RH; for Hygroscopicity: in words, by GVS. The protocol:
Sorption isotherms were obtained using a SMS DVS Intrinsic moisture sorption analyser, controlled by DVS Intrinsic Control software. The sample temperature was maintained at 25° C. by the instrument controls. The humidity was controlled by mixing streams of dry and wet nitrogen, with a total flow rate of 200 ml/min. The relative humidity was measured by a calibrated Rotronic probe (dynamic range of 1.0-100% RH), located near the sample. The weight change, (mass relaxation) of the sample as a function of % RH was constantly monitored by a microbalance (accuracy ±0.005 mg). Typically, 5-30 mg of sample was placed in a tared mesh stainless steel basket under ambient conditions. The sample was loaded and unloaded at 40% RH and 25° C. (typical room conditions). A moisture sorption isotherm was performed as outlined below (2 scans per complete cycle). The standard isotherm was performed at 25° C. at 10% RH intervals over a 0-90% RH range. Typically, a double cycle (4 scans) was carried out. Data analysis was carried out within Microsoft Excel using the DVS Analysis Suite.
The sample was recovered after completion of the isotherm and re-analysed by XRPD.

The nature of series [4]: Thermo-Gravimetric Analysis (TGA). The protocol: TA Instruments Discovery TGA: TGA data were collected on a TA Instruments Discovery TGA, equipped with a 25 position auto-sampler. Typically, 5 10 mg of each sample was loaded onto a pre-tared aluminium DSC pan and heated at 10° C./min from ambient temperature to 350° C. A nitrogen purge at 25 mlmL/min was maintained over the sample. The instrument control software was TRIOS and the data were analysed using Universal Analysis.

Series [5] can be described thus: Variable temperature XRPD (VT-XRPD). The procedure: Non-ambient conditions: For variable temperature (VT-XRPD) experiments samples were mounted on an Anton Paar DHS 900 hot stage at ambient conditions. The sample was then heated to the appropriate temperature at 10° C./min and subsequently held isothermally for 2 minutes before data collection. Samples were prepared and analysed on a silicon wafer mounted to the hot stage using a heat-conducting paste.

Series [6] is described as follows: Storage stability at elevated temperature and humidity (XRPD and HPLC purity after storage).

Structures are written as SMILES. Like-named read-outs stand apart in the source and are kept apart here.

In the case of `O=C(O)c1cc(O)cc(O)c1.O=C1C[C@@H](c2cc(F)c(F)c(F)c2)CN1Cn1ncnc1Cl` [ARP-1725-71-02C], in series [1], the “Melting point (onset)” value is 113.3 °C. For the same compound, the “Stability at 25° C./97% RH and 40° C./75% RH” value in series [2] was “Stable,”.
Turning to `O=C(O)c1ccc(O)cc1O.O=C(O)c1ccc(O)cc1O.O=C1C[C@H](c2cc(F)c(F)c(F)c2)CN1Cn1ncnc1Cl` [2,4-DHBA Pattern 1], in series [1], the “Melting point (onset)” value turned out to be 138.2 °C; the “DSC Endotherm, enthalpy” value amounted to 91 J/g; the “DSC Endotherm, onset temp” value is 138.2 °C. For the same compound, in series [2], the “Storage: XRPD pattern” value is “XRPD pattern unchanged after 7 days”; the “Stability at 25° C./97% RH and 40° C./75% RH” value is recorded as “Stable,”; the “Stability to increased temperature and humidity” value was “remains stable”. Moreover, in series [3], the “Hygroscopicity (GVS)” value is “Slightly hygroscopic”, the “XRPD post-GVS” value is listed as “Some changes by XRPD post-GVS”, the “GVS reversible water uptake” value was 0.53% w/w reversible water uptake between 0-90% and the Hygroscopicity result was “only slightly hygroscopic”. The “XRPD post-GVS” value in series [3] (sample re-analysed by XRPD after isotherm) is “slight changes”. The “TGA mass loss prior to dissociation/degradation” value in series [4] is given as “No significant mass loss prior to dissociation/”. In series [4] (followed by continual decomposition), the “TGA w/w loss on dissociation/degradation” value is recorded as “degradation then 43.4% w/w loss followed by continual”. In addition, in series [5], the “VT-XRPD pattern on heating” value was “XRPD pattern remained unchanged until the sample” and the “VT-XRPD temperature at which sample melted” value is “melted at ca. 139 °C”. In addition, in series [6] (25° C./97% RH, after 7 days), the “Storage: XRPD pattern” value is listed as “XRPD pattern unchanged after 7 days”. For the same compound, the “Storage: Purity” value in series [6] (25° C./97% RH, after ca 1 month on storage) is on record as “Purity: 99.7% (after ca 1 month on storage)”. Besides, in series [6] (40° C./75% RH, after ca 1 month on storage), the “Storage: Purity” value is “Purity: 97.9% (after ca 1 month on storage)”. Besides, in series [6] (8 days), the “XRPD after storage at 40° C./75% RH” value is listed as 8 days: Unchanged.
As for `O=C(O)c1cc(O)cc(O)c1.O=C1C[C@H](c2cc(F)c(F)c(F)c2)CN1Cn1ncnc1Cl` [3,5-DHBA Pattern 1], in series [1], the “DSC Endotherm, enthalpy” value was found to be 85 J/g and the “DSC Endotherm, onset temp” value was 113.3 °C. For the same compound, in series [2], the “Storage: XRPD pattern” value is recorded as “XRPD Pattern unchanged after 7 days”; the “XRPD after storage at 40° C./75% RH” value is 7 days: Unchanged; the “Stability to increased temperature and humidity” value is listed as “remains stable”. In series [3], the “Hygroscopicity (GVS)” value is listed as “Slightly hygroscopic”, the “XRPD post-GVS” value is listed as “Unchanged by XRPD post-GVS”, the “GVS reversible water uptake” value was ~0.2% w/w reversible water uptake and the Hygroscopicity entry is “only slightly hygroscopic”. Moreover, the “TGA onset of dissociation/decomposition” value in series [4] is “ca. 120 °C”. Further, in series [5], the “VT-XRPD pattern on heating” value is “XRPD pattern remained unchanged until” and the “VT-XRPD temperature at which sample melted” value is “it melted at ca. 113 °C”. In series [6] (25° C./97% RH, 7 days), the “Storage: Purity” value is on record as “Purity: 99.9%”. Besides, in series [6] (25° C./97% RH, after 7 days), the “Storage: XRPD pattern” value is on record as “XRPD Pattern unchanged after 7 days”. For the same compound, in series [6] (40° C./75% RH, 7 days), the “Storage: Purity” value is given as “Purity: 99.7%”.
With `O=C(O)c1ccc(O)cc1.O=C1C[C@H](c2cc(F)c(F)c(F)c2)CN1Cn1ncnc1Cl` [4-HBA Pattern 1], in series [1], the “DSC 1st Endotherm, enthalpy” value was 8 J/g; the “DSC 1st Endotherm, onset temp” value came to 70.6 °C; the “DSC 2nd Endotherm, enthalpy” value came out at 56 J/g; the “DSC 2nd Endotherm, onset temp” value came to 87.7 °C. In series [1], the “DSC Broad exotherm, enthalpy” value amounted to 19 J/g; the “DSC Broad exotherm, onset temp” value is 110 °C; the “Melting point (onset)” value is reported as 87.7° C.*. In addition, in series [2], the “XRPD after storage at 40° C./75% RH” value is on record as 7 days: Unchanged; the “Stability at 25° C./97% RH and 40° C./75% RH” value is “Stable,”; the “Stability to increased temperature and humidity” value is given as “stable”. For the same compound, in series [3], the “Hygroscopicity (GVS)” value is listed as “Non-hygroscopic”; the “XRPD post-GVS” value was “RH, unchanged by XRPD post-GVS”; the “GVS reversible water uptake” value was ~0.11% w/w reversible water uptake between 0-90%; the Hygroscopicity result was “non-hygroscopic”. Further, in series [4] (from 114-268° C., followed by continual decomposition), the TGA w/w loss was 29.0% w/w loss from 114-268 °C. In addition, the “VT-XRPD pattern on heating” value in series [5] was “XRPD pattern changes slightly on heating between 60 °C”. Also, in series [6] (25° C./97% RH, 11 days), the “Storage: Purity” value is “Purity: 99.9%”. Besides, the “Storage: XRPD pattern” value in series [6] (25° C./97% RH, after 11 days) is given as “XRPD pattern unchanged after 11 days”. Also, the “Storage: Purity” value in series [6] (40° C./75% RH, 11 days) was “Purity: 99.7%”. Further, the “Storage: XRPD pattern” value in series [6] (40° C./75% RH, after 11 days) is reported as “XRPD pattern unchanged after 11 days”.

These data come from patent US20240132478A1, “COCRYSTAL” (Syndesi Therapeutics SA, priority 2020, published 2024).
